Source: BindingDB's records for doi:10.1021/ml100283h (2011)
pIC50: −log10 of the molar value.

Experiments:
[1] = molecular target: T1, Cytochrome P450 11B1, mitochondrial (Homo sapiens, UniProt P15538); assay: Inhibition of human CYP11B1 expressed in hamster V79 MZ cells using [3H] 11 deoxycorticosterone as substrate by HPLC radioflow detector
T1 sequence (P15538 whole entry): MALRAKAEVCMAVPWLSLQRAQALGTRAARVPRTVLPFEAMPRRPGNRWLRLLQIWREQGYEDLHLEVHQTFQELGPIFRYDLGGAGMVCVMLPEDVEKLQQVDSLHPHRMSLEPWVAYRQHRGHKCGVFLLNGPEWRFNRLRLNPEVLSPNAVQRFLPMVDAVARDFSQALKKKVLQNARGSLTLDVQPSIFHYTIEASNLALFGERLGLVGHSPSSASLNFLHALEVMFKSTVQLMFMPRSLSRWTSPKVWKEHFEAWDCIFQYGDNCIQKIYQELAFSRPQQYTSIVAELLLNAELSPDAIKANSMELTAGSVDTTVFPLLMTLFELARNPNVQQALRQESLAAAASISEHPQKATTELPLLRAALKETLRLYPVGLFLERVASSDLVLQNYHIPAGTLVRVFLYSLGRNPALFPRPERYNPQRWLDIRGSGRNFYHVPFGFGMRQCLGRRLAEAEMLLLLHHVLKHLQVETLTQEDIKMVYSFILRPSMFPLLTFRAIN

[2] = molecular target: T2, Cytochrome P450 11B2, mitochondrial (Homo sapiens, UniProt P19099); assay: Inhibition of human CYP11B2 expressed in hamster V79 MZ cells using [3H] 11 deoxycorticosterone as substrate by HPLC radioflow detector
T2 sequence (P19099 whole entry): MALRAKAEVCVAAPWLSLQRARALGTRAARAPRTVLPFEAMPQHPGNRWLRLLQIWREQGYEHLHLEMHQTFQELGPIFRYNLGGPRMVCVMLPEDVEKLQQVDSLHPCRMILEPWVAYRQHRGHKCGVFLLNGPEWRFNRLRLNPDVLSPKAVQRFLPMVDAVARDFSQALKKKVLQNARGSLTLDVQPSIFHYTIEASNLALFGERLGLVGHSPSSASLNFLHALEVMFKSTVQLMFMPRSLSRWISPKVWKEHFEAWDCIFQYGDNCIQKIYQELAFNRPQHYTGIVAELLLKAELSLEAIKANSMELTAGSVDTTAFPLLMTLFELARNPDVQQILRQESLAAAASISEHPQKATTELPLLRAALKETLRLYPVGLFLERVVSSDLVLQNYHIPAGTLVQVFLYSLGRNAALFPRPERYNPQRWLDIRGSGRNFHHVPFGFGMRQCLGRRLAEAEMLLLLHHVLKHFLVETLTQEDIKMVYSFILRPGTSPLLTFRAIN

pIC50 [1]: 6.82 | pIC50 [2]: 5.56
SMILES: c1ccc(-c2ccc(Cn3ccnc3)cn2)cc1 [5-((1H-imidazol-1-yl)methyl)-2-phenylpyridine]
